Measurements from PubChem BioAssay (NCI).
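At the GI50, growth is halved. The concentration for full growth arrest is given as TGI.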

Assays:
Assay in all cases: NCI tumour cell line growth inhibition, 384-well format
[1] = tested on: SK-MEL-28 melanoma
[2] = tested on: T-47D breast
[3] = tested on: RPMI-8226 leukemia
[4] = tested on: MDA-MB-231 breast
[5] = tested on: MDA-MB-468 breast
[6] = tested on: SR leukemia
[7] = tested on: SN12C renal
[8] = tested on: NCI-H522 lung
[9] = tested on: SK-OV-3 ovarian
[10] = tested on: SF-539 CNS
[11] = tested on: U251 glioblastoma
[12] = tested on: SK-MEL-2 melanoma
[13] = tested on: NCI-H23 lung

## C[C@]12CCCN1CC1=NNC(=O)c3cc(F)cc4[nH]c2c1c34
[1]
  GI50: 26.1 µM
  TGI: 81.3 µM
[2]
  GI50: 31.7 µM
  TGI: > 86.3 µM
[3]
  GI50: 10.5 µM
  TGI: 22.9 µM
[4]
  GI50: 13.6 µM
  TGI: 60.1 µM
[5]
  GI50: 3.57 µM
  TGI: 18.8 µM
[6]
  GI50: 1.27 µM
  TGI: 2.58 µM
[7]
  GI50: 13.1 µM
  TGI: 35 µM
[8]
  GI50: 16.8 µM
  TGI: 44.6 µM
[9]
  GI50: 35.5 µM
  TGI: > 100 µM
[10]
  GI50: 14.2 µM
  TGI: 33.9 µM
[11]
  GI50: 13.6 µM
  TGI: > 79.2 µM
[12]
  GI50: 20.4 µM
  TGI: 41.6 µM
[13]
  GI50: 15.4 µM
  TGI: 35.5 µM
